Like-named read-outs stand apart in the source and are kept apart here.
How the values were obtained:
[1] = target: T1, D2L receptor (Homo sapiens, UniProt P14416); assay: Functional activity test on D2L receptor, cAMP detection (Gi antagonist test); type: cell-based; conditions: cryopreserved CHO-K1/D2L/Gα15 cells, forskolin + dopamine EC90
T1 construct: expressed in transfected cells
Excerpt: (§1) The antagonistic effects of the compounds of the present disclosure on D2L and D2S receptors were detected by cyclic adenosine monophosphate (cAMP) detection method at cell-level.
(§2) • (1) Test compound: compounds of the embodiment of the present disclosure, self-made. • (2) Control compound: dopamine hydrochloride (Sigma, H8502), (+)-Butaclamol hydrochloride (Sigma, D033). • (3) Stable cell line:
(§3) • (1) Preparation of test compounds: the compounds of the embodiments of the present disclosure were respectively dissolved in DMSO to prepare 10 mM mother liquor, and the mother liquor was stored in the nitrogen cabinet for later use. • (2) Preparation of control compound: the control compound was dissolved in DMSO to prepare 10 mM mother liquor, and the mother liquor was repackaged and stored in the refrigerator at −80° C. for later use. • (3) IBMX was dissolved in DMSO to prepare 0.5 M stock solution and the stock solution was cryopreserved at −80° C. • (4) Forskolin was dissolved in DMSO to prepare 1 mM stock solution and the stock solution was cryopreserved at −80° C. for later use. • (5) Experimental buffer: 5× stimulation buffer was diluted to 1× with ddH2O and IBMX with a final concentration of 0.5 mM was added thereto, and the solution was mixed well for later use.
(§4) • (1) Preparation of compounds: the test compounds and positive control compound (+)-Butaclamol hydrochloride were diluted gradient using Bravo in the compound plate (Greiner-781280), and the initial concentration of working solution was 20 μM, and the working solution was diluted at 4-fold for 10 concentrations and centrifuged at 1000 rpm for 1 minute for later use. • (2) Cryopreserved D2L cells: cells was taken out from the liquid nitrogen tank and thaw in a water bath at 37° C., and the cell suspension was transferred to a centrifuge tube containing HBSS buffer, and centrifuged at 750 rpm for 5 minutes.
(§5) Cultured D2S cells: after absorbing the culture medium, the cells were washed with 3 mL PBS, sucked out, digested with 0.05% Trypsin for 3 min, terminated with equal volume of culture medium, transferred to centrifuge tube, and centrifuged at 750 rpm for 5 minutes. After absorbing the liquid, the centrifuge tube was added with a buffer solution containing HBSS and re-suspend, and centrifuged at 750 rpm for 5 minutes. • (3) The supernatant was discarded, and the precipitate was re-suspended with proper amount of experimental buffer, and 20 μL was taken for cell counting. • (4) Appropriate amount of cell suspension was removed, and the cell suspension was diluted to 2×10^5 cells/mL with experimental buffer, and the cell plate (PerkinElmer-6008280) was added with 5 μL/well cell suspension, and centrifuged at 1000 rpm for 1 minute. • (5) 5 μL/well was transferred to the cell plate with Bravo, and the cell plate was centrifuged at 1000 rpm for 1 minute, then the cell plate was closed and incubated at room temperature for 15 minutes. • (6) Forskolin was transferred to the cell plate with Tecan-D300e, and Dopamine hydrochloride with a final concentration of EC90 was transferred to the cell plate. • (7) The cell plate was centrifuged at 1000 rpm for 1 minute, then sealed and incubated at room temperature for 45 minutes. • (8) Standard curve: cAMP with the stock solution concentration of 2848 nM was diluted 4-fold continuously at 8 points according to the initial maximum concentration of 712 nM, and 10 μL/well was taken out to add to the cell plate. • (9) 10 μL/well of detection solution containing cAMP-d2 and Anti-cAMP-Cryptate (diluted with pyrolysis buffer at 1:20) was added to the cell plate, and the cell plate was centrifuged at 1000 rpm for 1 minute, and incubated at room temperature without light for 1 hour. • (10) Detection: the cell plate was centrifuged at 1000 rpm for 1 minute, and the plate was read with Envision (excitation light 340 nm, emission light 620 nm and 665 nm). […]

[2] = target: T2, 5-HT2A receptor (Homo sapiens, UniProt P28223); assay: Functional detection experiment of 5-HT2A receptor (cultured cells), calcium influx assay; type: cell-based
T2 construct: expressed in transfected cells
Excerpt: The antagonistic effect of the compound of the present disclosure on the 5-HT2A receptor was detected by a calcium influx assay at the cellular level.
• (1) Test compounds: compounds of the embodiments of the present disclosure, self-made. • (2) Control compound: serotonin hydrochloride 5-hydroxytryptamine (Sigma, H9523), Ketanserin (Targetmol, T1066). • (3) Stable cell line:
• (1) Preparation of test compounds: the compounds of the embodiments of the present disclosure were respectively dissolved in DMSO to prepare 10 mM mother liquor, and the mother liquor was stored in the nitrogen cabinet for later use. • (2) Preparation of control compound: the control compound was dissolved in DMSO to prepare 10 mM mother liquor, and the mother liquor was repackaged and stored in the refrigerator at -80° C. for later use. • (3) Preparation of 250 mM probenecid solution: 1 mL experimental buffer was added into a tube containing 77 mg powder, and the powder was dissolved by vortex oscillation. • (4) Preparation of 2× fluorescent probe solution: a bottle of fluorescent probe dry powder was taken out to balance to room temperature, and 10 mL of experimental buffer solution and 200 μL of 250 mM probenecid solution were added thereto, and the mixture was scrolled and let stand for 5 minutes to ensure complete dissolution. • (5) Experimental buffer HBSS: HBSS and HEPES were mixed evenly in a ratio of 50:1, stored in a refrigerator at 4° C., and heated at 37° C. when used.
• (1) Cells were taken out from the liquid nitrogen tank and melted in a water bath at 37° C. The surface of the cryopreservation tube was wiped with 75% alcohol and put in the biosafety cabinet. • (2) The cell suspension was transferred to a 15 mL centrifuge tube with 4 mL preheated plating medium, and the tube was centrifuged at 1000 rpm for 5 minutes. • (3) The supernatant was discarded, and 10 mL of plating medium was added and blown gently, and the mixture was transferred to a culture dish for growth. After the cells had adhered to the wall for 24 hours, they were replaced with growth medium for continuous culture.
• (1) The logarithmic growth cells was taken and the cells grew to about 85%-90%. The cells were performed the following operations: cell cleaning, digestion, termination, then transferred to a 15 mL centrifuge tube, and the tube was centrifuged at room temperature at 1000 rpm for 5 minutes. • (2) The supernatant was discarded, and a certain plating medium was added and blown gently. 20 μL of cell suspension was taken out and counted. • (3) Cells were diluted to 1×10^6 cells/mL and 20 μL of cell suspension was added to each well of the cell plate (Greiner-781946), so that the density of each well is 2×10^4 cells/well. • (4) The cell plate was incubated in an incubator with 5% CO2 at 37° C. for 16-24 hours. […]

[3] = tested on: MK-801 induced hyperactivity behavior; assay: MK-801 induced hyperactivity behavior in mice; type: in vivo, ICR mice; conditions: for ED50: Mus musculus, read-out: ED50 (half effective dose)
Protocol: The efficacy of the compounds of the present disclosure was evaluated by high activity model of mice induced by intraperitoneal injection of MK-801.
(§6) Experimental animals: ICR mice, male, 8 mice/group, Spelford (Beijing) Biotechnology Co., Ltd.
Preparation of drug: the test compounds were taken, and pure water was added, and ultrasonication was performed.
Administration route and method: gavage administration, 10 mL/kg (body weight).
(§7) Administration frequency and duration: single dose.
Animals were stratified by body weight and then randomly divided into blank group, model group, and administration group, and detailed information of administration is shown in the following table.
Mice were stratified according to body weight and then randomly divided into model group, blank group and each administration group. One hour after the gavage administration of solvent or drug, 0.3 mg/kg MK-801 was injected intraperitoneally (the blank group was injected with the same volume of physiological saline), and then the mice were put into an independent activity box (a black polyethylene box with the specification of 29 cm×29 cm×30 cm) for video recording for 60 minutes, and video analysis was performed at the end of the recording to evaluate the activity of the mice.
(§8) The experimental data were expressed as x±SD, and SPSS statistical software was used to test the homogeneity of variance. If the variance was homogeneous, single factor analysis of variance was performed, and Dunnett t test is used for pairwise comparison. The ED50 was calculated by nonlinear fitting with GraphPad Primis5 software.

[4] = target: T3, D2S receptor (Homo sapiens, UniProt P14416); assay: Functional activity test on D2S receptor, cAMP detection (Gi antagonist test); type: cell-based; conditions: cultured HEK293/D2S cells, forskolin + dopamine EC90
T3 construct: expressed in transfected cells
Excerpt: as §1, §2, §3, §4, §5

[5] = tested on: DOI-induced head-shaking behavior; assay: DOI-induced head-shaking behavior in mice; type: in vivo, ICR mice; conditions: Mus musculus, read-out: ED50 (half effective dose)
Protocol: The efficacy of the compounds of the present disclosure was evaluated by the mice model of head-shaking behavior induced by intraperitoneal injection of (±) DOI (a hallucinogenic agent usually used to replicate anti-schizophrenic animal model).
as §6
Preparation of drug: the test compounds were taken, and solvent was added, and ultrasonication was performed.
Administration route and method: oral gavage administration, 10 mL/kg (body weight).
as §7
Animals were stratified by body weight and then randomly divided into blank group, model group, and administration groups, and detailed information of administration is shown in the following table.
Mice were stratified according to body weight and then randomly divided into model group, blank group and each administration group. One hour after the animals were gavage administration of the solvent or drugs, they were placed in a beaker (13 cm in diameter, 19 cm in height) with fresh padding, and the model drug DOI was injected intraperitoneally at a dose of 1 mg/kg. The times of head-shaking were recorded within 0-20 minutes after DOI was injected intraperitoneally.
Head-shaking behavior is defined as rapid rotational twitch of mouse's head or wet dog-like shaking, which should be different from normal hair grooming or inquiry behavior.
as §8

[6] = cultured CHO-K1/5-HT2A cells, calcium influx (FLIPR), antagonist mode vs agonist EC80, read-out: 5-HT2A IC50
[7] = male ICR mice, single gavage dose 1 h before MK-801 0.3 mg/kg i.p., activity recorded 60 min

T3 sequence (P14416 1-414 isoform P14416-2): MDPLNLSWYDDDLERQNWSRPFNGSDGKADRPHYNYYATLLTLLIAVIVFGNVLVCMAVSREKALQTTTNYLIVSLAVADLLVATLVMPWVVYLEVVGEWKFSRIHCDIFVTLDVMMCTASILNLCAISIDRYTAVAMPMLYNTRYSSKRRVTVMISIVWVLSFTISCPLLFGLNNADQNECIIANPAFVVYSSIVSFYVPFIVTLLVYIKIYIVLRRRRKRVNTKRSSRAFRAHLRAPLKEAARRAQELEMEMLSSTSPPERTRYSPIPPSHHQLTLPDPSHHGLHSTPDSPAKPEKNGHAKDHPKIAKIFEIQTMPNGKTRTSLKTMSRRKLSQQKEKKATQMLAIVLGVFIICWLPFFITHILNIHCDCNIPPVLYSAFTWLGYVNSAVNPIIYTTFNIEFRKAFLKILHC
T1 sequence (P14416 whole entry): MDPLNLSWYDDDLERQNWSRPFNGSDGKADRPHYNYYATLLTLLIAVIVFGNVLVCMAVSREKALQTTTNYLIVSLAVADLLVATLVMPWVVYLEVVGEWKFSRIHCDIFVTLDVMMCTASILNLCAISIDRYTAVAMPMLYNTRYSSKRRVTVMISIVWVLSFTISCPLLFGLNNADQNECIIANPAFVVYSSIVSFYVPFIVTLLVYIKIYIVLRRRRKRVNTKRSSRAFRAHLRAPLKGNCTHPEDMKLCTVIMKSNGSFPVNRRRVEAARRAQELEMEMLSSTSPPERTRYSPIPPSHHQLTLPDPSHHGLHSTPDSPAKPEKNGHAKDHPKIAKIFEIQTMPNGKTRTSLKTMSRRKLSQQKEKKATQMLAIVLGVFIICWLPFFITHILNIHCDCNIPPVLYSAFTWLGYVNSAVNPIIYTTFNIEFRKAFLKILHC
T2 sequence (P28223 whole entry): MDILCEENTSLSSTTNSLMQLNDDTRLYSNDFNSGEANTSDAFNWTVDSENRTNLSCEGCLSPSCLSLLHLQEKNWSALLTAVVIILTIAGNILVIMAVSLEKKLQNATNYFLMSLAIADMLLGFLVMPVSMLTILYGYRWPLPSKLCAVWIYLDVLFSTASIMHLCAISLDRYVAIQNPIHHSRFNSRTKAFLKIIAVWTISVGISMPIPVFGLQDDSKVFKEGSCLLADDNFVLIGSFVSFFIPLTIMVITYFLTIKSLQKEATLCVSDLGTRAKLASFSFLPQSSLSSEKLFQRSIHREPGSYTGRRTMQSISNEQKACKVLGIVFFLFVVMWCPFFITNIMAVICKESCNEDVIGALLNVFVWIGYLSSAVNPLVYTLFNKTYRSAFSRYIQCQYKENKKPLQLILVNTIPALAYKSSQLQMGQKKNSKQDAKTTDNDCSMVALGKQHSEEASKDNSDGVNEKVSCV

SMILES: CN1C(=O)CN2c3c(cccc31)C1CN(CCCC(=O)c3ccc(F)cc3)CCC12 (centres unmarked) [Comparative embodiment 1, 8-(4-(4-fluorophenyl)-4-oxobutyl)-3-methyl-6b,7,8,9,10,10a-hexahydro-1H-pyrido [3′,4′:4,5]pyrrolo[1,2,3-de]quinoxalin-2(3H)-one, reference compound]
- IC50 [1]: 200 nM
- IC50 [2, 6]: 44.4 nM
- ED50 [3, 7]: 1.28 mg/kg
- MED (lowest effective dose) [3, 7]: 1 mg/kg
- IC50 [4]: 364 nM

SMILES: CN1C(=O)CN2c3c(cccc31)[C@@H]1CN(CCCC(=O)c3ccc(F)cc3)CC[C@@H]12 [Comparative embodiment 1-A, reference compound]
- IC50 [1]: 88.8 nM
- IC50 [2, 6]: 9.11 nM
- IC50 [4]: 264 nM

SMILES: CN1CCN2c3c(cccc31)C1CN(CCCC(=O)c3ccc(F)cc3)CCC12 (centres unmarked) [Comparative embodiment 2, 1-(4-fluorophenyl)-4-(3-methyl-2,3,6b,9,10,10a-hexahydro-1H-pyrido[3′,4′:4,5]pyrrolo[1,2,3-de]quinoxalin-8(7H)-yl)butan-1-one, reference compound]
- IC50 [1]: 35.8 nM
- IC50 [4]: 622 nM

SMILES: CN1C(=O)CN2c3c1cccc3[C@@]1(C)CN(CCCC(=O)c3ccc(F)cc3)CC[C@@H]21 [Embodiment 1-B, (6bS,10aR)-8-(4-(4-fluorophenyl)-4-oxobutyl)-3,6b-dimethyl-6b,7,8,9,10,10a-hexahydro-1H-pyrido[3′,4′:4,5]pyrrolo [1,2,3-de]quinoxalin-2(3H)-one]
- IC50 [1]: 15.5 nM
- IC50 [2, 6]: 108 nM
- IC50 [4]: 63.1 nM

SMILES: CCN1C(=O)CN2c3c1cccc3C1(C)CN(CCCC(=O)c3ccc(F)cc3)CCC21 (centres unmarked) [Embodiment 3, 3-ethyl-8-(4-(4-fluorophenyl)-4-oxobutyl)-6b-methyl-6b,7,8,9,10,10a-hexahydro-1H-pyrido[3′,4′:4,5]pyrrolo[1,2,3-de]quinoxalin-2(3H)-one]
- IC50 [1]: 51.4 nM
- IC50 [4]: 207 nM
- ED50 [5]: 0.21 mg/kg

SMILES: CN1C(=O)C(C)(C)N2c3c1cccc3C1(C)CN(CCCC(=O)c3ccc(F)cc3)CCC21 (centres unmarked) [Embodiment 4, 8-(4-(4-fluorophenyl)-4-oxobutyl)-1,1,3,6b-tetramethyl-6b,7,8,9,10,10a-hexahydro-1H-pyrido [3′,4′:4,5]pyrrolo[1,2,3-de]quinoxalin-2(3H)-one]
- IC50 [2]: 19.7 nM
- ED50 [5]: 0.42 mg/kg

SMILES: Cn1c(=O)c(=O)n2c3c(cccc31)C1(C)CN(CCCC(=O)c3ccc(F)cc3)CCC21 (centres unmarked) [Embodiment 5, 8-(4-(4-fluorophenyl)-4-oxobutyl)-3,6b-dimethyl-6b,7,8,9,10,10a-hexahydro-1H-pyrido[3′,4′:4,5]pyrrolo[1,2,3-de]quinoxaline-1,2(3H)-dione]
- IC50 [1]: 13.1 nM
- IC50 [4]: 93.4 nM

SMILES: CN1CCN2c3c1cccc3C1(C)CN(CCCC(=O)c3ccc(F)cc3)CCC21 (centres unmarked) [Embodiment 7, 4-(3,6b-dimethyl-2,3,6b,9,10,10a-hexahydro-1H-pyrido[3′,4′:4,5]pyrrolo[1,2,3-de]quinoxalin-8(7H)-yl)-1-(4-fluorophenyl)butan-1-one]
- IC50 [2]: 3.5 nM
- ED50 [3]: 0.09 mg/kg
- MED (lowest effective dose) [3, 7]: 0.1 mg/kg

— patent US20230339949A1, “HETEROCYCLIC SUBSTITUTED FUSED y-CARBOLINE DERIVATIVE, PREPARATION METHOD THEREFOR, INTERMEDIATE THEREOF AND USE THEREOF” (SHUJING BIOPHARMA CO., LTD, priority 2020, published 2023)
